Values quoted from earlier work, collected in US20060052322A1, “Combination treatment of cancer with elicitor of gene product expression and gene-product targeting agent” (INTROGEN THERAPEUTICS, INC., priority 2004, published 2006).
Where a name gives a salt, the structure may show the parent alone. Read-outs that look alike come from different tables or passages of the source. Each block holds one compound with its values, some of them ahead of it. Starred links: 1 amine or outer side, 2 acyl side, 3 side chain; linkers in the order of their positions; H or OH if unused. Positions of bridges follow the written chain, without caps; N, C: chain ends. Non-standard residues stand in square brackets, D forms with d. Residues, ends and D or L forms follow the SMILES beside them. Chains are numbered I, II in the order given. Actinocin(9to1) = Cc1c2oc3c(C)ccc(C(=O)[*:1])c3nc-2c(C(=O)[*:2])c(N)c1=O; NMeV = CN[C@H](C(=O)O)C(C)C; Sar = CNCC(=O)O

How the values were obtained:
[1] = share of dose

- excreted/recovered in the urine [1]: Approximately 10%
SMILES: CO[C@@]12[C@H](COC(N)=O)C3=C(C(=O)C(C)=C(N)C3=O)N1C[C@@H]1N[C@@H]12 [Mitomycin]

SMILES: COc1cccc2c1C(=O)c1c(O)c3c(c(O)c1C2=O)C[C@@](O)(C(C)=O)C[C@@H]3O[C@H]1C[C@H](N)[C@H](O)[C@H](C)O1 [Daunorubicin, 5,12-Naphthacenedione, (8S-cis)-8-acetyl-10-[(3-amino-2,3,6-trideoxy-a-L-lyxo-hexanopyranosyl)oxy]-7,8,9,10-tetrahydro-6,8,11-trihydroxy-10-methoxy-, hydrochloride]
- secreted/excreted into the bile [1]: ~40%

- excreted/recovered in the urine [1]: Approximately 15%
SMILES: CC[C@]1(O)C[C@@H]2CN(CCc3c([nH]c4ccccc34)[C@@](C(=O)OC)(c3cc4c(cc3OC)N(C)[C@H]3[C@@](O)(C(=O)OC)[C@H](OC(C)=O)[C@]5(CC)C=CCN6CC[C@]43[C@@H]65)C2)C1 [Vinblastine]

SMILES: O=NN(CCCl)C(=O)NC1CCCCC1 [Lomustine, 1-(2-chloro-ethyl)-3-cyclohexyl-1 nitrosourea]
- solubility (absolute alcohol): 70 mg per ml
- solubility (water): < 0.05 mg per ml

- excreted/recovered in the urine [1]: a few percent
SMILES: COc1cccc2c1C(=O)c1c(O)c3c(c(O)c1C2=O)C[C@@](O)(C(=O)CO)C[C@@H]3O[C@H]1C[C@H](N)[C@H](O)[C@H](C)O1 [Doxorubicin, 5,12-Naphthacenedione, (8s-cis)-10-[(3-amino-2,3,6-trideoxy-a-L-lyxo-hexopyranosyl)oxy]-7,8,9,10-tetrahydro-6,8,11-trihydroxy-8-(hydroxyacetyl)-1-methoxy-hydrochloride]

SMILES: Cc1c2oc3c(C)ccc(C(=O)N[C@@H]4C(=O)N[C@H](C(C)C)C(=O)N5CCC[C@H]5C(=O)N(C)CC(=O)N(C)[C@@H](C(C)C)C(=O)O[C@@H]4C)c3nc-2c(C(=O)N[C@@H]2C(=O)N[C@H](C(C)C)C(=O)N3CCC[C@H]3C(=O)N(C)CC(=O)N(C)[C@@H](C(C)C)C(=O)O[C@@H]2C)c(N)c1=O [Actinomycin D] (I: T[dV]P[Sar][NMeV] / II: T[dV]P[Sar][NMeV]; ester I:1-I:C, II:1-II:C; linker I:N-II:N via Actinocin(9to1))
- excreted/recovered in the urine [1]: 10%
- secreted/excreted into the bile [1]: Half

SMILES: CC[C@@]1(O)C(=O)OCc2c1cc1n(c2=O)Cc2cc3ccccc3nc2-1 [Camptothecin]
- storage stability (2-8° C., dry, airtight, light-resistant environment): at least two years
